≈ marks a conversion by molar mass, not a printed value. Where a SMILES comes first, the peptide text is derived from it. [ ]: non-standard residue; d: D form.
What was measured:
E. coli ATCC25922 [1] = assay: microbe, parasite or virus in culture; conditions: ATCC25922, 24 h
How it was run: (§1)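 Broth microdilution in MHB, inoculum ~1 × 10^5 CFU/mL from log-phase cultures, peptides 0.25–128 μM in 0.01% acetic acid/0.2% BSA. After 24 h at 37 °C, absorbance at 492 nm was read. MIC was the lowest concentration with no absorbance increase over the microbe-free control, from three independent experiments.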

E. coli K88 = assay: microbe, parasite or virus in culture; conditions: E. coli K88; MHB, about 1 × 10^5 CFU/mL, 37 °C, 24 h; three independent experiments
How it was run: as §1

E. coli K99 = assay: microbe, parasite or virus in culture; conditions: E. coli K99; MHB, about 1 × 10^5 CFU/mL, 37 °C, 24 h; three independent experiments
How it was run: as §1

E. coli UB1005 = assay: microbe, parasite or virus in culture; conditions: UB1005, 24 h
How it was run: as §1

P. aeruginosa ATCC27853 = assay: microbe, parasite or virus in culture; conditions: ATCC27853, 24 h
How it was run: as §1

S. aureus ATCC29213 = assay: microbe, parasite or virus in culture; conditions: ATCC29213, 24 h
How it was run: as §1

S. epidermidis ATCC12228 = assay: microbe, parasite or virus in culture; conditions: ATCC12228, 24 h
How it was run: as §1

S. pullorum C7913 = assay: microbe, parasite or virus in culture; conditions: C7913, 24 h
How it was run: as §1

[2] = tested on: methicillin-resistant S. aureus ATCC43300; assay: microbe, parasite or virus in culture; conditions: ATCC43300, 24 h
How it was run: as §1

E. coli ATCC25922 [3] = assay: Salt sensitivity assay (MIC in presence of physiological salts); assay type: cell-based; set-up: unit not given here
Experimental: Bacteria were inoculated into MHB and incubated overnight at 37 °C until the bacteria were in log phase growth. Next, we corrected the bacterial concentration to approximately 1 × 10^5 CFU/mL using MHB. […] After incubation at 37 °C for 24 h, the absorbance was measured at 492 nm using a microplate reader (Tecan GENios F129004, Tecan, Austria). Broth containing microbes and […] were used as positive and negative controls, respectively. The lowest peptide concentration with no increase in absorbance compared to that of the negative control was defined as the MIC. The experiments were independently performed three times. The effects of salt ions on the antibacterial activities of the antimicrobial peptides were evaluated. Different salt ion concentrations were added to BSA peptide dilutions, and the next steps followed the MIC measurement method. […] These tests were independently repeated three times.

[4] = LPS binding assay (BODIPY-TR-cadaverine displacement); set-up: species or system E. coli; conditions: peptide concentration higher than 4 μM; 50 μg/mL LPS, 5 μg/mL BODIPY-TR cadaverine, Tris 50 mM pH 7.4; 100% = 10 μg/mL polymyxin B
Experimental: The abilities of the antimicrobial peptides to bind LPS were determined using the fluorescent dye BODIPY-TR-cadaverine (BC) substitution method. LPS (50 μg/mL) from E. coli O111:B4 was incubated with BC (5 μg/mL) in Tris buffer (50 mm, pH 7.4) for 4 h. Next, 50 μL of various concentrations of peptides (final concentration of 1–64 μM) and 50 μL of LPS-BC mixture were added to 96-well plates, and the fluorescence was measured using a fluorescence spectrophotometer (Infinite 200 pro, Tecan, China) at an excitation wavelength of 580 nm and an emission wavelength of 620 nm. Each test was performed three times. The values were converted to %∆F (AU) using the following equation:%ΔF (AU) = [(Fobs − F0)/(F100 − F0)] × 100 where Fobs is the fluorescence value measured in the presence of the peptide, F0 is the initial fluorescence of LPS with BC without the addition of peptides, F100 is the fluorescence value produced by adding 10 μg/mL polymyxin B.

E. coli ATCC25922 [5] = assay: Membrane depolarization (diSC3-5); assay type: cell-based; conditions: E. coli ATCC25922, 0.5, 1 and 2×MIC
Experimental: The effects of the antimicrobial peptides on the plasma membrane potential were determined used cell membrane potential-sensitive fluorescent dye diSC3-5. Briefly, E. coli ATCC25922 cells were incubated in MHB to mid-log phase at 37 °C, rinsed 3 times with HEPES buffer, adjusted to an OD600 of 0.05. Next, KCl was used to adjust the final concentration to 0.4 μM and diSC3-5 was added. The mixture was incubated for 30 min at 37 °C. The antibacterial peptides at concentrations of 0.5, 1 and 2×MIC were then added to a cuvette containing 2 mL of bacterial solution, and the fluorescence change was recorded from 0 to 600 s with an F-4500 fluorescence spectrophotometer (Hitachi, Tokyo, Japan) (excitation λ = 622 nm, emission λ = 670 nm). Bacteria without antimicrobial peptides were used to determine the background fluorescence.

E. coli ATCC25922 [6] = assay: Swimming motility assay; assay type: cell-based; conditions: E. coli ATCC25922, 0.3% agar, 1–8 μM peptide, 37 °C, 20 h; versus untreated control
Experimental: The cell motility assay was performed on LB medium containing 0.3% agar. The peptides were added to 10 mL of medium at final concentrations of 1–8 μM. After mixing well, the mixtures were poured into 6-well plates and dried for 2 h. Subsequently, an overnight culture of E. coli ATCC 25922 was inoculated in the center of the movement plate. After incubation at 37 °C for 20 h, images were taken using a FluoroChemQ system (Cell biosciences, San Jose, CA, USA). The experiment was independently repeated three times.

`CC(C)[C@H](NC(=O)CNC(=O)[C@H]1CCCN1C(=O)[C@@H](NC(=O)[C@H](Cc1c[nH]cn1)NC(=O)[C@@H](NC(=O)[C@H](Cc1c[nH]cn1)NC(=O)[C@@H](NC(=O)[C@H](CCCNC(=N)N)NC(=O)[C@@H](N)CCCNC(=N)N)C(C)C)C(C)C)C(C)C)C(=O)N[C@@H](Cc1c[nH]cn1)C(=O)N[C@H](C(=O)N[C@@H](Cc1c[nH]cn1)C(=O)N[C@H](C(=O)N[C@@H](CCCNC(=N)N)C(=O)N[C@@H](CCCNC(=N)N)C(N)=O)C(C)C)C(C)C` [HV2] (H-RRVHVHV[dP]GVHVHVRR-NH2; N-terminus assumed) showed an MIC (E. coli ATCC25922 [1]) of 8 µM (≈ 15.5 µg/mL), an MIC (E. coli K88) of 4 µM (≈ 7.76 µg/mL) and an MIC (E. coli K99) of 8 µM (≈ 15.5 µg/mL). It also gave an MIC (E. coli UB1005) of 8 µM (≈ 15.5 µg/mL), an MIC (P. aeruginosa ATCC27853) of 8 µM (≈ 15.5 µg/mL) and an MIC (S. aureus ATCC29213) greater than 128 µM. For the same molecule, the MIC (S. epidermidis ATCC12228) was greater than 128 µM, the MIC (S. pullorum C7913) was 8 µM (≈ 15.5 µg/mL) and the MIC [2] was greater than 128 µM. The “MIC, FeCl3” value (E. coli ATCC25922 [3]; E. coli ATCC25922, 4 μM FeCl3, unit not given) was 4, the “MIC, NH4Cl” value (E. coli ATCC25922 [3]; E. coli ATCC25922, 6 μM NH4Cl, unit not given) was 4 and the “MIC, ZnCl2” value (E. coli ATCC25922 [3]; E. coli ATCC25922, 8 μM ZnCl2, unit not given) was 1. The “MIC, MgCl2” value (E. coli ATCC25922 [3]; E. coli ATCC25922, 1 mM MgCl2, unit not given) was 8, the “MIC, KCl” value (E. coli ATCC25922 [3]; E. coli ATCC25922, 4.5 mM KCl, unit not given) was 4 and the “MIC, NaCl” value (E. coli ATCC25922 [3]; E. coli ATCC25922, 150 mM NaCl, unit not given) was 4. The “MIC, Control” value (E. coli ATCC25922 [3]; E. coli ATCC25922, absence of physiological salts, no unit printed in Table 3 (Table 2 MIC in μM)) was 8, the “LPS binding ability relative to binding activity of polymyxin B” value [4] was “higher than 60%” and the “plasma membrane depolarization (diSC3-5 release)” value (E. coli ATCC25922 [5]) was “more rapid and stronger plasma membrane depolarization relative to PG-1”. The “swimming motility (diameter of swimming bacteria)” value (E. coli ATCC25922 [6]) was “significantly reduced the diameter of the swimming bacteria”.
